This note sets out measurements from patent US11559538B2, “Substituted 1,2-oxaborolan-2-ols as PDE4 inhibitors” (Pfizer Inc., priority 2018, dated 2023).

pIC50: −log10 of the molar value. Where two headings read alike, the source gives them in different places.

One test deals with IL-13. The test can be described thus: Cytokine assay: IL-13 release from PHA-L stimulated human PBMCs. The format is cell-based. To be noted: read-out: IL13 IC50. As for the experimental part:
(§1) Cytokine inhibitory activity is determined by measuring the effect of test agent on the release of the cytokines IL-4, IL-13 and IFNγ from human peripheral blood mononuclear cells (PBMCs) stimulated with the T-cell mitogen phytohemagglutinin-L (PHA-L). At the time of assay, human PBMCs (Astarte Biologics) are removed from cryopreservation, thawed quickly at 37° C., diluted in assay medium (RPMI-Gibco 1640 medium, 10% heat inactivated fetal bovine serum (HIFBS), 2 mM glutamine and 10 mM HEPES pH 7.4) and then centrifuged at 250×g for 5 minutes. The resulting cell pellet is re-suspended in assay medium to a concentration of approximately 5×10^6 cells/mL and 50 μL of this cell suspension (approximately 250,000 cells) is added to each well of a 384-well cell culture microtiter plate (Perkin Elmer). Varying concentrations of test compound are then diluted in assay medium and added to the assay plate wells in a volume of 25 μL. After −10 minutes at room temperature (21° C.) the cells are stimulated by the addition of 25 μL of PHA-L (14 μg/mL; Millipore) and the assay plate is placed in an incubator at 37° C. in a humidified environment in 5% carbon dioxide. The final assay conditions are approximately 250,000 human PBMCs per well in assay medium containing 3.5 μg/mL PHA-L and the indicated final concentration of test compound (approximately 10 μM to […] by 4-fold dilution). The final concentration of DMSO in the assay is approximately 0.25%. After 48 hours, the assay plate is removed from the incubator and centrifuged at 250×g for 5 minutes. A portion of the resulting cell supernatant is then used to determine the amount of IL-4, IL-13 and IFNγ in each well. Cytokine measurements are made using human IL-4, IL-13 or IFNγ HTRF assay kits (CisBio) following the manufacturer's assay protocol. The concentrations and resulting effect values for tested compounds are plotted and the concentration of compound required for 50% effect (IC50) is determined with a four-parameter logistic dose response equation (E-WorkBook, ID Business Solutions Ltd.) and shown in Table 17.

Another test concerns IFNγ. The test can be described thus: Cytokine assay: IFNγ release from PHA-L stimulated human PBMCs. The format is cell-based. As for the experimental part: as §1
For a further test, the system named is IL-4. Description: Cytokine assay: IL-4 release from PHA-L stimulated human PBMCs. The format is cell-based. To be noted: read-out: IL4 IC50. The procedure:
as §1

The target in test [1] is PDE4B (aa 152-484, Uniprot ID Q07343) (Homo sapiens (Human), UniProt Q07343). Description: PDE4 SPA assay (scintillation proximity assay). The format is biochemical. To be noted: read-out: PDE4B2 IC50. As for the experimental part: Phosphodiesterase (PDE) activity is determined by measuring the effect of a test agent on the activity of the PDE4B enzyme in a scintillation proximity assay (SPA). At the time of assay, approximately 30 μL of PDE4B (aa 152-484, Uniprot ID Q07343) in 50 mM Tris pH 7.5, 1.3 mM MgC2, 0.004% Brij 35 is added to a 384 well white clear bottom polystyrene plate (Corning) containing 1 μL of varying concentrations of test compound. After −10 minutes at room temperature (RT; 21° C.), the assay is initiated by the addition of 20 μL of a mixture of ^3H-labeled (adenosine 3′, 5′-cyclic phosphate, ammonium salt, [2,8-^3H]; Perkin Elmer) and unlabeled cAMP. The final assay conditions are approximately 81.6 pM PDE4B in 50 mM Tris pH 7.5, 1.3 mM MgCl2, 0.004% Brij 35, 1 μM ^3H-labeled/unlabeled cAMP (1425 dpm/pmol) and the indicated final concentration of test compound (approximately 10 μM to […] by 4-fold dilution). The final concentration of DMSO in the assay is approximately 2.0%. After 30 minutes at RT, the assay is terminated by the addition of approximately 20 μL of an aqueous solution of PDE YSI SPA beads (8 mg/mL in water; Perkin Elmer). The beads are allowed to settle for at least 2 hours and the plate is then counted on a MicroBeta2 (Perkin Elmer). The concentrations and resulting effect values for the tested compound are plotted and the concentration of compound required for 50% effect (IC50) is determined with a four-parameter logistic dose response equation (E-WorkBook, ID Business Solutions Ltd.) and shown in Table 17.
Sequence of PDE4B (aa 152-484, Uniprot ID Q07343) (Q07343 324-656): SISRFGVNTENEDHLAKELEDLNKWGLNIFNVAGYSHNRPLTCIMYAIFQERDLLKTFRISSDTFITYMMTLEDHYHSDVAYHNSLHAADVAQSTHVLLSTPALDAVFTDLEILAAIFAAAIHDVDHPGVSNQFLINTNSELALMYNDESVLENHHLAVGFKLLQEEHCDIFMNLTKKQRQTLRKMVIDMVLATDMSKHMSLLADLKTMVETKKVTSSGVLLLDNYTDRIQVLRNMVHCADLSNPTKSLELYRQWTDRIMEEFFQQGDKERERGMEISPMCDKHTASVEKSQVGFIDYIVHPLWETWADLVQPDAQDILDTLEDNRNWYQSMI

Take `CCCOc1nc(-c2cncc(C3COB(O)C3)c2)ccc1OC` (single isomer, unassigned) [Example 61, 4-(5-methoxy-6-propoxy-[2,3′-bipyridin]-5′-yl)-1,2-oxaborolan-2-ol]: the negative logarithm of the IC50 (pIC50) in the test with IL-13 is 6.30; in the test with IFNγ (Homo sapiens, PBMC), 8.67; in the test on IL-4 it was 9.14; in test [1], 9.28.
On to `CCCOc1nc(-c2cncc(C3COB(O)C3)c2)ccc1OC` (single isomer, unassigned) [Example 62, 4-(5-methoxy-6-propoxy-[2,3′-bipyridin]-5′-yl)-1,2-oxaborolan-2-ol], for which the negative logarithm of the IC50 (pIC50) in the test with IL-13 is 5.59; in the test with IFNγ, 8.84; with IL-4, 8.58; in test [1] it was 9.55.
On to `COc1ccc(-c2cccc(C3COB(O)C3)n2)cc1OC1CCCC1` (single isomer, unassigned) [Example 66, 4-(6-(3-(cyclopentyloxy)-4-methoxyphenyl)pyridin-2-yl)-1,2-oxaborolan-2-ol], for which the pIC50 was 6.49 in the test with IL-13; 9.15 in the test on IFNγ; 7.06 with IL-4 (Homo sapiens, PBMC); 8.67 in test [1].
As to `COc1ccc(-c2cccc(C3COB(O)C3)n2)cc1OC1CCCC1` (single isomer, unassigned) [Example 67, 4-(6-(3-(cyclopentyloxy)-4-methoxyphenyl)pyridin-2-yl)-1,2-oxaborolan-2-ol], the negative-log IC50 (pIC50) with IL-13 was 6.12; with IFNγ, 7.90; in the test with IL-4, 7.00; in test [1], 8.40.
Take `CCOc1c(OC)ccc(-c2cncc(C3COB(O)C3)c2)c1F` (single isomer, unassigned) [Example 74, 4-(5-(3-ethoxy-2-fluoro-4-methoxyphenyl)pyridin-3-yl)-1,2-oxaborolan-2-ol]: the pIC50 with IL-13 (Homo sapiens, PBMC) was 6.11; in the test on IFNγ (Homo sapiens, PBMC), 8.57; in the test on IL-4 (Homo sapiens, PBMC), 7.96; in test [1] it was 8.52.
For `CCCOc1cc(-c2cncc(C3COB(O)C3)c2C)ccc1OC` (single isomer, unassigned) [Example 85, 4-(5-(4-methoxy-3-propoxyphenyl)-4-methylpyridin-3-yl)-1,2-oxaborolan-2-ol] the same measures were 6.27, 9.25, 9.05 and 9.54.
For `CCCOc1c(OC)ccc(-c2cccc(C3COB(O)C3)n2)c1C#N` (single isomer, unassigned) [Example 87, 6-(6-(2-hydroxy-1,2-oxaborolan-4-yl)pyridin-2-yl)-3-methoxy-2-propoxybenzonitrile] the same measures were 6.35, 8.52, 7.72 and 8.30.
For `CCCOc1cc(-c2cccc(C3COB(O)C3)c2)ccc1OC` (single isomer, unassigned) [Example 89, 4-(4′-methoxy-3′-propoxy-[1,1′-biphenyl]-3-yl)-1,2-oxaborolan-2-ol], the pIC50 with IL-13 was 6.35; in the test on IFNγ, 8.46; in the test on IL-4 it was 7.58; in test [1] it was 8.92.
For `CCCOc1cc(-c2cccc(C3COB(O)C3)c2)ccc1OC` (single isomer, unassigned) [Example 90, 4-(4′-methoxy-3′-propoxy-[1,1′-biphenyl]-3-yl)-1,2-oxaborolan-2-ol] the same measures were 5.55, 7.86, 6.54 and 8.36.
In the case of `CCOc1cc(-c2nc(C3COB(O)C3)cs2)c(F)cc1OC` (single isomer, unassigned) [Example 92, 4-(2-(5-ethoxy-2-fluoro-4-methoxyphenyl)thiazol-4-yl)-1,2-oxaborolan-2-ol], the negative logarithm of the IC50 (pIC50) is 6.02 in the test with IL-13 (Homo sapiens, PBMC); 8.57 with IFNγ (Homo sapiens, PBMC); 8.47 in the test with IL-4 (Homo sapiens, PBMC); 8.75 in test [1].
In the same order, the values of `CCOc1c(OC)ccc(-c2cncc(C3COB(O)C3)c2)c1C(F)(F)F` (single isomer, unassigned) [Example 95, 4-(5-(3-ethoxy-4-methoxy-2-(trifluoromethyl)phenyl)pyridin-3-yl)-1,2-oxaborolan-2-ol] are 6.34, 8.54, 8.13 and 8.31.
Turning to `CCOc1ccc(-c2cncc(C3COB(O)C3)c2)cc1OCC` (single isomer, unassigned) [Example 98, 4-(5-(3,4-diethoxyphenyl)pyridin-3-yl)-1,2-oxaborolan-2-ol], the pIC50 in the test with IL-13 is 5.55; in the test with IFNγ, 8.57; in the test on IL-4 it was 6.66; in test [1], 8.95.
In the case of `CCCOc1cc(-c2cncc(C3COB(O)C3)c2)ccc1OCC` (single isomer, unassigned) [Example 105, 4-(5-(4-ethoxy-3-propoxyphenyl)pyridin-3-yl)-1,2-oxaborolan-2-ol], the negative-log IC50 (pIC50) with IL-13 was 6.31; in the test on IFNγ (Homo sapiens, PBMC) it was 8.26; in the test on IL-4 (Homo sapiens, PBMC), 7.85; in test [1] it was 8.49.
Take `CCCOc1cc(-c2cncc(C3COB(O)C3)c2)ccc1OCC` (single isomer, unassigned) [Example 106, 4-(5-(4-ethoxy-3-propoxyphenyl)pyridin-3-yl)-1,2-oxaborolan-2-ol]: the pIC50 in the test on IL-13 is 5.68; in the test on IFNγ it was 8.47; with IL-4 it was 7.79; in test [1], 8.74.
Turning to `CCCOc1cc(-c2cncc(C3COB(O)C3)c2)c(F)cc1OC` (single isomer, unassigned) [Example 111, 4-(5-(2-fluoro-4-methoxy-5-propoxyphenyl)pyridin-3-yl)-1,2-oxaborolan-2-ol], the negative-log IC50 (pIC50) with IL-13 (Homo sapiens, PBMC) is 6.30; in the test on IFNγ (Homo sapiens, PBMC), 8.53; with IL-4 (Homo sapiens, PBMC), 8.52; in test [1] it was 9.01.
In the same order, the values of `CCOc1cc(-c2cncc(C3COB(O)C3)c2)cc(C#N)c1OC` (single isomer, unassigned) [Example 119, 3-ethoxy-5-(5-(2-hydroxy-1,2-oxaborolan-4-yl)pyridin-3-yl)-2-methoxybenzonitrile] are 5.93, 8.13, 8.24 and 9.14.
For `COc1cnc(-c2cccc(C3COB(O)C3)c2)nc1OC` (single isomer, unassigned) [Example 123, 4-(3-(4,5-dimethoxypyrimidin-2-yl)phenyl)-1,2-oxaborolan-2-ol] the same measures were 5.79, 8.45, 7.47 and 8.51.
For `COc1ccc(-c2cncc(C3COB(O)C3)n2)cc1OC1CCCC1` (single isomer, unassigned) [Example 126, 4-(6-(3-(cyclopentyloxy)-4-methoxyphenyl)pyrazin-2-yl)-1,2-oxaborolan-2-ol] the same measures were 6.17, 9.10, 8.14 and 9.07.
As for `CCCOc1cc(-c2cccc(C3COB(O)C3)n2)ccc1OC` (single isomer, unassigned) [Example 128, 4-(6-(4-methoxy-3-propoxyphenyl)pyridin-2-yl)-1,2-oxaborolan-2-ol], the pIC50 with IL-13 (Homo sapiens, PBMC) is 6.18; with IFNγ (Homo sapiens, PBMC) it was 8.65; in the test with IL-4 (Homo sapiens, PBMC), 7.27; in test [1] it was 8.24.
